# Data reported in the NIST ThermoML archive (doi:10.1021/acs.jced.5b00738).
# ± gives the expanded uncertainty stated by the source.
# Assay: refractive index (Na D-line) (dimensionless)
# Settings: 298.15 K; 101.33 kPa; Liquid; Standard Abbe refractometry
row,Structure (SMILES),refractive index
1,O=Cc1ccco1 [2-furaldehyde],1.52263 ± 0.001
2,CCC(C)(C)O [2-methylbutan-2-ol],1.40219 ± 0.001
3,CC(=O)CC(C)C [4-methylpentan-2-one],1.39327 ± 0.001
4,CC(C)=O [acetone],1.35553 ± 0.001
5,O [water],1.33249 ± 0.001
